Laboratory results: patent publication US20200060276A1, “THIAZOLE COMPOUND AND HERBICIDE” (OAT Agrio Co., Ltd., priority 2017, published 2020)

How the values were obtained:
Assay type in all cases: in vivo
[1] = test system: Echinochloa crus-galli (L.) P. Beauv. var. formosensis Ohwi; assay: Test for Herbicidal Effect in Flooding Treatment (#1), ECHDG; details: flooding treatment at seeding, dose 2 kg/ha, visual observation on day 21
In short: (§1)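 Visual scores from 0 (<10% inhibition) to 5 (≥90% or complete withering) were taken 21 days after treatment of glasshouse-grown plants. Seeds were sown in soil flooded for 24 h beforehand, and compound was applied dropwise onto the surface at 2 kg/ha as an acetone solution diluted in water with Tween 80.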

Digitaria ciliaris = assay: Test for Herbicidal Effect in Soil Treatment (#3); details: 504 h, dose of 2 kg/ha, day 21, visual observation, read-out: growth inhibition effect
Source text: 0: Growth inhibition effect is less than 10%. 1: Growth inhibition effect is equal to or greater than 10%, and less than 30%. 2; Growth inhibition effect is equal to or greater than 30%, and less than 50%. 3: Growth inhibition effect equal to or greater than 50%, and less than 70%. 4: Growth inhibition effect is equal to or greater than 70%, and less than 90%. 5: Growth inhibition effect is equal to or greater than 90%, or complete withering is achieved. (#3) Test for Herbicidal Effect in Soil Treatment: Styrol cups each having an opening diameter of 8 cm (about 52 cm^2) were respectively filled with soil (45 ml) which had been passed through a sieve (2 mm). Water (about 115 ml) was added. Thereafter, Digitaria ciliaris was seeded. Each of the compounds of the present invention was dissolved in acetone, and the obtained product was then diluted with water containing Tween 80°. Each of the resultant chemical solutions was dropped on the entire surface of an associated one of treatment sections, so that each section was treated with 1 ml of the respective chemical solution (a dose of 2 kg/ha). After the treatment, the plants were grown in a glasshouse. On day 21, a survey was conducted on the herbicidal activity by visual observation, and evaluation was made according to the following criteria. The herbicidal activity of the following comparative compounds A and B (the compounds disclosed Japanese Unexamined Patent Publication No. 2003-096059) were evaluated.

Scirpus juncoides = assay: Test for Herbicidal Effect in Flooding Treatment (#1), SCIJU; details: flooding treatment at seeding, dose 2 kg/ha, visual observation on day 21
In short: as §1

Cyperus microiria = assay: Test for Herbicidal Effect in Flooding Treatment (#1), CYMIC; details: flooding treatment at seeding, dose 2 kg/ha, visual observation on day 21
In short: as §1

[2] = test system: Echinochloa crus-galli (L.) P. Beauv. var. formosensis Ohwi; assay: Test for Herbicidal Effect in Flooding Treatment (#2), ECHDG at 2-2.5 leaf stage; details: for ECHDG (2-2.5L) #2 herbicidal effect (growth inhibition grade): flooding treatment at 2-2.5 leaf stage, dose 0.2 kg/ha, visual observation on day 21; for inhibition at 200 g/ha: Echinochloa crus-galli, 504 h, flooding treatment (#2), ECHDG at 2-2.5 leaf stage, dose of 0.2 kg/ha, day 21, visual observation, read-out: growth inhibition effect
In short: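 Scoring is a visual 0–5 scale of growth inhibition (0 below 10%, 5 at 90% or more or full withering), taken 21 days after treatment in a glasshouse. Dose was 0.2 kg/ha, applied as acetone/Tween 80 aqueous solution onto flooded soil once seedlings reached the 2–2.5 leaf stage.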

Monochoria vaginalis = assay: Test for Herbicidal Effect in Flooding Treatment (#1), MONVA; details: flooding treatment at seeding, dose 2 kg/ha, visual observation on day 21
In short: as §1

Row | Compound | ECHDG #1 herbicidal effect (growth inhibition grade) [1] | inhibition at 2000 g/ha (Digitaria ciliaris) | SCIJU #1 herbicidal effect (growth inhibition grade) (Scirpus juncoides) | CYMIC #1 herbicidal effect (growth inhibition grade) (Cyperus microiria) | ECHDG (2-2.5L) #2 herbicidal effect (growth inhibition grade) [2] | MONVA #1 herbicidal effect (growth inhibition grade) (Monochoria vaginalis) | inhibition at 200 g/ha [2]
1 | CCOc1c(F)cccc1CS(=O)(=O)c1ncc(Cl)s1 [Compound 1C-9] | 5 (Growth inhibition effect is equal to or greater than 90%, or complete withering is achieved) | ≥ 50% | 5 (Growth inhibition effect is equal to or greater than 90%, or complete withering is achieved) | 5 (Growth inhibition effect is equal to or greater than 90%, or complete withering is achieved) | 5 (Growth inhibition effect is equal to or greater than 90%, or complete withering is achieved) | – | –
2 | CCOc1ccc(F)cc1CS(=O)(=O)c1ncc(Cl)s1 [Compound 1C-15] | 5 (Growth inhibition effect is equal to or greater than 90%, or complete withering is achieved) | ≥ 50% | 5 (Growth inhibition effect is equal to or greater than 90%, or complete withering is achieved) | 5 (Growth inhibition effect is equal to or greater than 90%, or complete withering is achieved) | 5 (Growth inhibition effect is equal to or greater than 90%, or complete withering is achieved) | – | –
3 | O=S(=O)(Cc1c(F)cccc1OC(F)F)c1ncc(Cl)s1 [Compound 1C-41, 5-chloro-2-{[2-(difluoromethoxy)-6-fluorophenyl][methanesulfonyl]}-1,3-thiazole] | 5 (Growth inhibition effect is equal to or greater than 90%, or complete withering is achieved) | ≥ 90% | 5 (Growth inhibition effect is equal to or greater than 90%, or complete withering is achieved) | – | 5 (Growth inhibition effect is equal to or greater than 90%, or complete withering is achieved) | 5 (Growth inhibition effect is equal to or greater than 90%, or complete withering is achieved) | ≥ 90%
4 | CCOc1ccc(CS(=O)(=O)c2ncc(Cl)s2)c(F)c1F [Compound 1C-99] | 5 (Growth inhibition effect is equal to or greater than 90%, or complete withering is achieved) | – | 5 (Growth inhibition effect is equal to or greater than 90%, or complete withering is achieved) | 5 (Growth inhibition effect is equal to or greater than 90%, or complete withering is achieved) | 5 (Growth inhibition effect is equal to or greater than 90%, or complete withering is achieved) | 5 (Growth inhibition effect is equal to or greater than 90%, or complete withering is achieved) | –
5 | CCOc1ccc(CS(=O)(=O)c2ncc(Cl)s2)c(Cl)c1Cl [Compound 1C-100] | 5 (Growth inhibition effect is equal to or greater than 90%, or complete withering is achieved) | – | 5 (Growth inhibition effect is equal to or greater than 90%, or complete withering is achieved) | 5 (Growth inhibition effect is equal to or greater than 90%, or complete withering is achieved) | 5 (Growth inhibition effect is equal to or greater than 90%, or complete withering is achieved) | 5 (Growth inhibition effect is equal to or greater than 90%, or complete withering is achieved) | –
6 | CCOc1c(F)cc(CS(=O)(=O)c2ncc(Cl)s2)cc1F [Compound 1C-104] | 5 (Growth inhibition effect is equal to or greater than 90%, or complete withering is achieved) | – | 5 (Growth inhibition effect is equal to or greater than 90%, or complete withering is achieved) | 5 (Growth inhibition effect is equal to or greater than 90%, or complete withering is achieved) | 1 (Growth inhibition effect is equal to or greater than 10%, and less than 30%) | 5 (Growth inhibition effect is equal to or greater than 90%, or complete withering is achieved) | –
7 | CCOc1c(F)cc(CS(=O)(=O)c2ncc(Cl)s2)cc1Cl [Compound 1C-105] | 5 (Growth inhibition effect is equal to or greater than 90%, or complete withering is achieved) | – | 5 (Growth inhibition effect is equal to or greater than 90%, or complete withering is achieved) | 5 (Growth inhibition effect is equal to or greater than 90%, or complete withering is achieved) | 2 (Growth inhibition effect is equal to or greater than 30%, and less than 50%) | 5 (Growth inhibition effect is equal to or greater than 90%, or complete withering is achieved) | –
8 | CCCOc1cc(Cl)c(CS(=O)(=O)c2ncc(Cl)s2)c(Cl)c1 [Compound 1C-110] | 5 (Growth inhibition effect is equal to or greater than 90%, or complete withering is achieved) | – | 5 (Growth inhibition effect is equal to or greater than 90%, or complete withering is achieved) | 5 (Growth inhibition effect is equal to or greater than 90%, or complete withering is achieved) | 5 (Growth inhibition effect is equal to or greater than 90%, or complete withering is achieved) | 5 (Growth inhibition effect is equal to or greater than 90%, or complete withering is achieved) | –
9 | O=S(=O)(Cc1c(F)cc(OCCC(F)(F)F)cc1F)c1ncc(Cl)s1 [Compound 1C-117] | 5 (Growth inhibition effect is equal to or greater than 90%, or complete withering is achieved) | – | 5 (Growth inhibition effect is equal to or greater than 90%, or complete withering is achieved) | 5 (Growth inhibition effect is equal to or greater than 90%, or complete withering is achieved) | 4 (Growth inhibition effect is equal to or greater than 70%, and less than 90%) | 5 (Growth inhibition effect is equal to or greater than 90%, or complete withering is achieved) | –
10 | COCOc1cc(Cl)c(CS(=O)(=O)c2ncc(Cl)s2)c(Cl)c1 [Compound 1C-119] | 5 (Growth inhibition effect is equal to or greater than 90%, or complete withering is achieved) | – | 5 (Growth inhibition effect is equal to or greater than 90%, or complete withering is achieved) | 5 (Growth inhibition effect is equal to or greater than 90%, or complete withering is achieved) | 4 (Growth inhibition effect is equal to or greater than 70%, and less than 90%) | 5 (Growth inhibition effect is equal to or greater than 90%, or complete withering is achieved) | –
11 | O=S(=O)(Cc1c(Cl)cccc1OCC(F)(F)F)c1ncc(Br)s1 [Compound 1C-161, 5-bromo-2-{[2-(2,2,2-trifluoroethoxy)-6-chlorophenyl][methanesulfonyl]}-1,3-thiazole] | 5 (Growth inhibition effect is equal to or greater than 90%, or complete withering is achieved) | ≥ 50% | 5 (Growth inhibition effect is equal to or greater than 90%, or complete withering is achieved) | – | 5 (Growth inhibition effect is equal to or greater than 90%, or complete withering is achieved) | – | –
12 | O=S(=O)(Cc1ccccc1F)c1ncc(Cl)s1 [comparative compound A, reference compound] | – | 30 to 50% | – | – | – | – | 10 to 30%
13 | O=S(=O)(Cc1ccccc1Cl)c1ncc(Cl)s1 [comparative compound B, reference compound] | – | 30 to 50% | – | – | – | – | 30 to 50%
